Experimental data published in the supplement of paper PMC11061612.

Legend:
[1] = tested on: MFE-280 (Endometrial Carcinoma); test: combination Emax (second highest fraction inhibited in the dose matrix, 72 h); higher = more inhibition; extreme values may be limits of the assay
Method in brief: (§1)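 Cell lines in DMEM/F12 or RPMI with 10% FBS were plated in 1536-well plates, held 24 hours at 37°C, 5% CO2, then given two-drug dose matrices for 72 hours (DMSO typically 0.2%). Viability was read by CellTiter-Glo 2.0 luminescence and scaled as inhibition from 0 (vehicle wells) to 1 (blank wells). Combination Emax is the second-highest inhibition in the matrix; Bliss excess is observed combination effect minus expected EA + EB − EA·EB, EA and EB being single-agent effects.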

[2] = tested on: NCI-H23 (Lung Adenocarcinoma); test: as above
Method in brief: as §1

[3] = tested on: REH (B-Lymphoblastic Leukemia); test: as above
Method in brief: as §1

[4] = tested on: PSN1 (Pancreatic Carcinoma); test: as above
Method in brief: as §1

[5] = tested on: IST-MES1 (Mesothelioma); test: as above
Method in brief: as §1

[6] = tested on: OPM-2 (Plasma Cell Myeloma); test: as above
Method in brief: as §1

[7] = tested on: SHP-77 (Small Cell Lung Carcinoma); test: as above
Method in brief: as §1

[8] = tested on: RERF-LC-Sq1 (Squamous Cell Lung Carcinoma); test: as above
Method in brief: as §1

[9] = tested on: SU-DHL-10 (B-Cell Non-Hodgkin's Lymphoma); test: as above
Method in brief: as §1

[10] = tested on: WM278 (Melanoma); test: as above
Method in brief: as §1

[11] = tested on: COLO-680N (Esophageal Squamous Cell Carcinoma); test: as above
Method in brief: as §1

[12] = tested on: GB-1 (Glioblastoma); test: as above
Method in brief: as §1

[13] = tested on: PC-3_[JPC-3] (Lung Adenocarcinoma); test: as above
Method in brief: as §1

[14] = tested on: PANC-03-27 (Pancreatic Carcinoma); test: as above
Method in brief: as §1

[15] = tested on: NCI-H2342 (Lung Adenocarcinoma); test: as above
Method in brief: as §1

[16] = tested on: NCI-H446 (Small Cell Lung Carcinoma); test: as above
Method in brief: as §1

[17] = tested on: FADU (Head and Neck Carcinoma); test: as above
Method in brief: as §1

[18] = tested on: CAL-120 (Breast Carcinoma); test: Bliss excess, mean over the matrix (fraction); higher = more synergy
Method in brief: as §1

[19] = tested on: A2058 (Melanoma); test: as above
Method in brief: as §1

[20] = tested on: LB996-RCC (Kidney Carcinoma); test: as above
Method in brief: as §1
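Wherever Bliss excess, mean over the matrix is given: after 72 h of two-drug dosing.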

SMILES	combination Emax [1]	combination Emax [2]	combination Emax [3]	combination Emax [4]	combination Emax [5]	combination Emax [6]	combination Emax [7]	combination Emax [8]	combination Emax [9]	combination Emax [10]	combination Emax [11]	combination Emax [12]	combination Emax [13]	combination Emax [14]	combination Emax [15]	combination Emax [16]	combination Emax [17]	Bliss excess [18]	Bliss excess [19]	Bliss excess [20]
NC1(C(=O)N[C@@H](CCO)c2ccc(Cl)cc2)CCN(c2ncnc3[nH]ccc23)CC1 [Capivasertib] + CC(C)n1c(=O)n(C)c2cnc3cc(F)c(-c4ccc(OCCCN5CCCCC5)nc4)cc3c21 [AZD1390] (first compound max 10 µM, 7x7, partner max 0.3 µM)	0.583	0.297	0.461	0.256	0.249	0.931	0.226	0.841	1	0.316	0.197	0.275	0.176	0.241	0.284	0.643	0.221	-0.086	-0.0336	-0.0871
NC1(C(=O)N[C@@H](CCO)c2ccc(Cl)cc2)CCN(c2ncnc3[nH]ccc23)CC1 [Capivasertib] + CCN(CCO)CCCOc1ccc2c(Nc3cc(CC(=O)Nc4cccc(F)c4)[nH]n3)ncnc2c1 [AZD2811] (first compound max 10 µM, 7x7, partner max 1 µM)	0.661	0.387	0.848	0.371	0.322	0.981	0.271	0.892	1	0.431	0.195	0.342	0.344	0.318	0.482	0.958	0.36	0.0165	0.0072	-0.0146
NC1(C(=O)N[C@@H](CCO)c2ccc(Cl)cc2)CCN(c2ncnc3[nH]ccc23)CC1 [Capivasertib] + COc1nnc2ccc(N3CCC(c4ccc(OCCN5CCN(C)C(=O)[C@H]5C)cc4)CC3)nn12 [AZD5153] (first compound max 10 µM, 7x7, partner max 1 µM)	0.608	0.773	0.987	0.256	0.45	1	0.607	1	1	0.734	0.276	0.48	0.349	0.307	0.46	0.97	0.65	0.101	0.0597	0.0131
NC1(C(=O)N[C@@H](CCO)c2ccc(Cl)cc2)CCN(c2ncnc3[nH]ccc23)CC1 [Capivasertib] + C[C@@H]1COCCN1C2=NC(=NC(=C2)C3(CC3)[S@](=N)(=O)C)C4=C5C=CNC5=NC=C4 [AZD6738] (first compound max 10 µM, 7x7, partner max 10 µM)	0.636	0.87	0.933	0.536	0.522	1	0.424	0.873	1	0.579	0.373	0.563	0.441	0.521	0.585	0.904	0.594	-0.0283	-0.0262	-0.0418
NC1(C(=O)N[C@@H](CCO)c2ccc(Cl)cc2)CCN(c2ncnc3[nH]ccc23)CC1 [Capivasertib] + Cn1cnc2c(F)c(Nc3ccc(Br)cc3Cl)c(C(=O)NOCCO)cc21 [Selumetinib] (first compound max 10 µM, 7x7, partner max 10 µM)	0.68	0.454	0.492	0.772	0.366	1	0.384	0.917	1	0.722	0.392	0.588	0.382	0.517	0.381	0.657	0.531	0.0219	0.108	0.0146
Cc1nc(Nc2ncc(C(=O)Nc3c(C)cccc3Cl)s2)cc(N2CCN(CCO)CC2)n1 [Dasatinib] + CC(=O)Nc1cccc(-n2c(=O)n(C3CC3)c(=O)c3c(Nc4ccc(I)cc4F)n(C)c(=O)c(C)c32)c1 [Trametinib] (first compound max 2 µM, 7x7, partner max 1 µM)	0.486	0.765	0.089	0.942	0.924	0.801	0.172	0.562	0.837	0.808	0.554	0.701	0.738	0.713	0.232	0.444	0.515	0.032	0.005	-0.0527
COc1cccc2c1C(=O)c1c(O)c3c(c(O)c1C2=O)C[C@@](O)(C(=O)CO)C[C@@H]3O[C@H]1C[C@H](N)[C@H](O)[C@H](C)O1 [Doxorubicin] + Cc1cc2ncnn2cc1Nc1ncc2c(n1)n(C1CCOCC1)c(=O)n2C [AZD7648] (first compound max 1 µM, 7x7, partner max 10 µM)	0.835	0.588	1	0.788	0.767	0.845	0.562	0.627	0.975	0.631	0.67	0.418	0.57	0.686	0.349	0.923	0.928	0.0064	0.0185	0.0561
